Experimental data as given in ChEMBL document CHEMBL1201862, “PubChem BioAssay data set” (2004).
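Compound exposure: 48 hours, 5 concentrations, 96-well plates. The concentration for 50% growth inhibition is given as GI50.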 Calls of active or inactive are those of the source. Rule as the data show it: active = GI50 up to about 1.1 µM and inactive = higher.

Key:
Assay in all cases: NCI tumour cell line growth inhibition, 48 h
SNB-75 = system: SNB-75
MCF7 = system: MCF7
BT-549 = system: BT-549
PC-3 = system: PC-3
Hs-578T = system: Hs-578T
HOP-62 = system: HOP-62
OVCAR-8 = system: OVCAR-8
U-251 = system: U-251
OVCAR-5 = system: OVCAR-5
786-0 = system: 786-0
Malme-3M = system: Malme-3M
M14 = system: M14
SK-MEL-2 = system: SK-MEL-2
NCI-H226 = system: NCI-H226
SF-295 = system: SF-295
HCT-116 = system: HCT-116
NCI-H460 = system: NCI-H460
HL-60 = system: HL-60
HCC 2998 = system: HCC 2998
SW-620 = system: SW-620

Measured: GI50

CC(=O)c1cccc(NC(=O)C(=O)c2c(O)oc3ccccc3c2=O)c1
inactive: SNB-75 > 100 µM | MCF7 > 100 µM | BT-549 > 100 µM | PC-3 > 100 µM | Hs-578T > 100 µM | HOP-62 > 100 µM | OVCAR-8 > 100 µM | U-251 > 100 µM | OVCAR-5 > 100 µM | 786-0 > 100 µM | Malme-3M > 100 µM | M14 > 100 µM | SK-MEL-2 10 µM | NCI-H226 > 100 µM | SF-295 > 100 µM | HCT-116 > 100 µM | NCI-H460 > 100 µM | HL-60 10 µM | HCC 2998 > 100 µM | SW-620 > 100 µM
